In paper PMC8474115 (Journal of Medicinal Chemistry, 2021):
Structures can show the parent of a compound that is named as a salt. Where two headings read alike, the source gives them in different places.

Tests used:
Assay in all cases: Eurofins SafetyScreen panel
MAO-B = target: T1, MAO-B (Homo sapiens, UniProt P27338); type: biochemical
T1 construct: Eurofins

Dopamine D3 = target: T2, Dopamine D3 (Homo sapiens, UniProt P35462); type: binding
T2 construct: Eurofins (contract screening) 219800

Muscarinic M4 = target: T3, Muscarinic M4 (Homo sapiens, UniProt P08173); type: binding
T3 construct: Eurofins (contract screening, SafetyScreen panel) PP223
T3 sequence (P08173 whole entry): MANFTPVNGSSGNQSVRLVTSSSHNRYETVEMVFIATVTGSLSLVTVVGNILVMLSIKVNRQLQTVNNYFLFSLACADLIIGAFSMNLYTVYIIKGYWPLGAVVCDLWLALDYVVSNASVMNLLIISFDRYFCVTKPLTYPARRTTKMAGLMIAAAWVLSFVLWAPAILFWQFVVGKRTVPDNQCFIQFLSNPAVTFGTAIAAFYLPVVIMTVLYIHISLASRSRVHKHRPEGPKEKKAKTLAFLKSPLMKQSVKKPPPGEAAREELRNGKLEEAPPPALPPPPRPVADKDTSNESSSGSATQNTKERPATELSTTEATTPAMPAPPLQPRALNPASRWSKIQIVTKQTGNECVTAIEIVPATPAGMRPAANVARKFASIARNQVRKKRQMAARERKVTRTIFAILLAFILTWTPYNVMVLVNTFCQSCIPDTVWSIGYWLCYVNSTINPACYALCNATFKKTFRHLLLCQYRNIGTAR

Opiate μ (OP3, MOP) = target: T4, Opiate μ (OP3, MOP) (Homo sapiens, UniProt P35372); type: binding
T4 construct: Eurofins (contract assay)
T4 sequence (P35372 whole entry): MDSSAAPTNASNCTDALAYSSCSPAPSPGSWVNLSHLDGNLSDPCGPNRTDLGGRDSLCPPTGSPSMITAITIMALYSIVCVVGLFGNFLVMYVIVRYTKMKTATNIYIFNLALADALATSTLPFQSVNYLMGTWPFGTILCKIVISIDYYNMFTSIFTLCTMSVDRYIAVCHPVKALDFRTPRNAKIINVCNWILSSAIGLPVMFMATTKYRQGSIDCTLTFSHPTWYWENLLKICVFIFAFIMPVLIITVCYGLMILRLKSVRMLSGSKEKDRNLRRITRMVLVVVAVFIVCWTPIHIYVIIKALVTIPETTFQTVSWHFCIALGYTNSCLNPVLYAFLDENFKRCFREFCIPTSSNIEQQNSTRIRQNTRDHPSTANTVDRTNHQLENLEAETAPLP

Serotonin 5-HT7 = target: T5, Serotonin 5-HT7 (Homo sapiens, UniProt P34969); type: binding
T5 construct: Eurofins (contract assay) 272320
T5 sequence (P34969 whole entry): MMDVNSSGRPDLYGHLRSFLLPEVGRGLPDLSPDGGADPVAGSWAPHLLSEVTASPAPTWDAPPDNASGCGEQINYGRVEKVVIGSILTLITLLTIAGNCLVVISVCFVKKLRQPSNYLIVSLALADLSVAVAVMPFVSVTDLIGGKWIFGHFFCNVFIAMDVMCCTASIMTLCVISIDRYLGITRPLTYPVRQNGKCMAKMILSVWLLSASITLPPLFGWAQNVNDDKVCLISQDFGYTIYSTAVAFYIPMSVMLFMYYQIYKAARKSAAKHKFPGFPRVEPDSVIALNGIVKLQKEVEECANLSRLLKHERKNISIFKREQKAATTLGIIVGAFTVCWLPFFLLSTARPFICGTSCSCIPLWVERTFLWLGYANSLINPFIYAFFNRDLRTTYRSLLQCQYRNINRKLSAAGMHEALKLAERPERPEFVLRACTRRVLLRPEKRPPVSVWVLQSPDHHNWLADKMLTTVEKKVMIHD

[1] = target: T6, Dopamine Transporter (DAT) (Homo sapiens, UniProt Q01959); type: binding
T6 construct: Eurofins (contract assay)
T6 sequence (Q01959 whole entry): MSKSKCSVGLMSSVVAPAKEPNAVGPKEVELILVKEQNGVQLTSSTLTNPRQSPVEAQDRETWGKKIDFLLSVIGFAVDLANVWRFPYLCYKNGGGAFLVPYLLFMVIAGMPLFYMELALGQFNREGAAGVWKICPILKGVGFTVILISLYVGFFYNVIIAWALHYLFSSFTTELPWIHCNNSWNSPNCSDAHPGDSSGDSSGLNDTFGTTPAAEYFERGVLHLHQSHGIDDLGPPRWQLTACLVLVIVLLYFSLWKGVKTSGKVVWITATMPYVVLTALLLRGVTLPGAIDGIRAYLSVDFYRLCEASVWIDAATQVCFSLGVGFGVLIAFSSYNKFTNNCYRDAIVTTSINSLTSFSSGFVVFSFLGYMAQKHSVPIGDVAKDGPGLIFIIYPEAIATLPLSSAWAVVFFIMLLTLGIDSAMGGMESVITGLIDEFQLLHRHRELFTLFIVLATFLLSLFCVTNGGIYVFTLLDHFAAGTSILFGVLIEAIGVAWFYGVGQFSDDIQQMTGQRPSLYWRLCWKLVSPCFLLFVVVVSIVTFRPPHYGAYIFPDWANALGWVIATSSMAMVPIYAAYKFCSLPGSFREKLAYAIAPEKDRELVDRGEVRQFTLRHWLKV

[2] = read-out: %inh, 10 μM, additional batch

T2 sequence (P35462 whole entry): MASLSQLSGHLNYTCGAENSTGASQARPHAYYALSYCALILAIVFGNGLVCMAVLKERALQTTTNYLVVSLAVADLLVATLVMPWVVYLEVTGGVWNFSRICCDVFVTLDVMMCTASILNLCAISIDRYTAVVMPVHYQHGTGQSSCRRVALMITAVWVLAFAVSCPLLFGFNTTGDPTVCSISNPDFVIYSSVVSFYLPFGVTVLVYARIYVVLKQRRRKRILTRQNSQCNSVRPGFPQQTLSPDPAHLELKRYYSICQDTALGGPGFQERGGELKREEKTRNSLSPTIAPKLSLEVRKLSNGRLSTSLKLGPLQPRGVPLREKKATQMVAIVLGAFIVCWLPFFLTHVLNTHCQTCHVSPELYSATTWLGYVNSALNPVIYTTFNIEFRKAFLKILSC
T1 sequence (P27338 whole entry): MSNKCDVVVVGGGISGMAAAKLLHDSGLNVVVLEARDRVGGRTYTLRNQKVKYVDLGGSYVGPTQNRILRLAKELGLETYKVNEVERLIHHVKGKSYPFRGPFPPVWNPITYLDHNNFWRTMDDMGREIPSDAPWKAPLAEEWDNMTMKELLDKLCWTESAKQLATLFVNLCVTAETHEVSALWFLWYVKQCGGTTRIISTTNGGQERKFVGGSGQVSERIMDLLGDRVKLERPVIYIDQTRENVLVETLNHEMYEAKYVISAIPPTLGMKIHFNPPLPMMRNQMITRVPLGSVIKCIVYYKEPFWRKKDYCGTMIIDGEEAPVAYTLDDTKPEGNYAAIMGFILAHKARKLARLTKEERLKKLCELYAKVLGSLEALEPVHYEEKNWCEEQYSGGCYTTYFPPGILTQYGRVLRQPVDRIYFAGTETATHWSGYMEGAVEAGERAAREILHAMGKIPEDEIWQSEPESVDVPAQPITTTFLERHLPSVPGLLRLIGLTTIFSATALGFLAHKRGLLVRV

Work on `O=S(=O)(c1cccc(F)c1)n1ccc2c(N3CCNCC3)nc3ccccc3c21` [FPPQ, 1-[(3-Fluorophenyl)sulfonyl]-4-(piperazin-1-yl)-1H-pyrrolo[3,2-c]quinoline dihydrochloride] yielded an inhibition at 10 µM (MAO-B) of 21%, an IC50 (Dopamine D3) of 0.63 µM and a Ki (Dopamine D3) of 0.21 µM. It also gave an inhibition at 0.01 µM (Dopamine D3; read-out: %inh, 10 nM) of -2%, an inhibition at 0.1 µM (Dopamine D3; read-out: %inh, 0.1 μM) of 14% and an inhibition at 1 µM (Dopamine D3; read-out: %inh, 1 μM) of 63%. For the same compound, the inhibition at 10 µM (Dopamine D3; read-out: %inh, 10 μM) was 89%, the inhibition at 10 µM (Dopamine D3; [2]) was 90% and the inhibition at 10 µM (Muscarinic M4) was 8%. For the same compound, the IC50 (Opiate μ (OP3, MOP)) was 7.08 µM, the inhibition at 0.1 µM (Opiate μ (OP3, MOP); read-out: %inh, 0.1 μM) was 3% and the inhibition at 10 µM (Opiate μ (OP3, MOP); read-out: %inh, 10 μM) was 59%. The inhibition at 10 µM (Opiate μ (OP3, MOP); [2]) was 61%, the inhibition at 100 µM (Opiate μ (OP3, MOP); read-out: %inh, 100 μM) was 97% and the inhibition at 0.1 µM (Serotonin 5-HT7; read-out: %inh, 0.1 μM) was -1%. For the same compound, the inhibition at 1 µM (Serotonin 5-HT7; read-out: %inh, 1 μM) was 21%, the inhibition at 10 µM (Serotonin 5-HT7; read-out: %inh, 10 μM) was 65% and the inhibition at 10 µM (Serotonin 5-HT7; [2]) was 67%. It also gave an inhibition at 100 µM (Serotonin 5-HT7; read-out: %inh, 100 μM) of 93%, an IC50 [1] of 1.37 µM and an inhibition at 0.01 µM ([1]; read-out: %inh, 10 nM) of 2%. The inhibition at 0.1 µM ([1]; read-out: %inh, 0.1 μM) was 6%, the inhibition at 1 µM ([1]; read-out: %inh, 1 μM) was 31% and the inhibition at 10 µM ([1]; read-out: %inh, 10 μM) was 101%. It also gave an inhibition at 10 µM [1, 2] of 98%.
